According to ChEMBL document CHEMBL1933021, “Novel and selective spiroindoline-based inhibitors of Sky kinase” (Bioorg Med Chem Lett, 2012):
In brackets after ≈: the same amount, converted by molar mass. Activity calls are given as the source filed them. The calls are words filed in the database; no cut-off is given here.

Assays:
Tyro3 (Mus musculus) = test: Inhibition of mouse Sky kinase assessed as inhibition of src substrate phosphorylation by ELISA
[1] = Aqueous solubility of compound at pH 6.5; format: physicochemical
[2] = Oral bioavailability in Sprague-Dawley rat; format: ADME, organism-based; settings: in vivo
[3] = Clearance in po dosed Sprague-Dawley rat; format: ADME, organism-based; settings: in vivo
[4] = Half life in human liver microsomes; format: ADME, Microsome
Rattus norvegicus = test: Volume of distribution at steady state in po dosed Sprague-Dawley rat; format: ADME, organism-based; settings: in vivo
[5] = Half life in po dosed Sprague-Dawley rat; format: ADME, organism-based; settings: in vivo
Cytochrome P450 2D6 = Cytochrome P450 2D6 (Homo sapiens, UniProt P10635); test: Inhibition of CYP2D6 using dextromethorphan as substrate; format: ADME
[6] = Permeability of the compound by PAMPA assay; format: ADME; settings: read-out: permeability

Chain of Cytochrome P450 2D6 (P10635 whole entry): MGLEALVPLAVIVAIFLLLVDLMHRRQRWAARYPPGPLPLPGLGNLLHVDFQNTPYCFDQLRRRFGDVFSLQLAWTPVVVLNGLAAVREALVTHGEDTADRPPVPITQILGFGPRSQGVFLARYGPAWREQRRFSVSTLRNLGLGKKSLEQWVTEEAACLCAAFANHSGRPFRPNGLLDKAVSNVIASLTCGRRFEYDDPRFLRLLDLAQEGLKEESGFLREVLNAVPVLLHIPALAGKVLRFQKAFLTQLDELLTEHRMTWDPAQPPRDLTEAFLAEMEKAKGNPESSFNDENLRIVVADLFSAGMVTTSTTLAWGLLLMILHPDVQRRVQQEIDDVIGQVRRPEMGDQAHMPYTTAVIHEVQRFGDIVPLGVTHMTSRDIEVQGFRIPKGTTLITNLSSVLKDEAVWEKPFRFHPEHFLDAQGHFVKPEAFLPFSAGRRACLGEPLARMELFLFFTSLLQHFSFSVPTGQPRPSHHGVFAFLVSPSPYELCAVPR

Row | inhibition (Tyro3 (Mus musculus)) | Structure (SMILES) | other results
1 | Active | O=C(c1cc2cc(Cl)ccc2[nH]1)N1C[C@@]2(CCN(C3CCNCC3)C2)c2ccccc21 | 
2 | Active | O=C(c1cc2cc(F)ccc2[nH]1)N1C[C@@]2(CCN(C3CNC3)C2)c2ccccc21 | 
3 |  | O=C(c1cc2cc(Cl)ccc2[nH]1)N1C[C@]2(CCN(C3CCNC3)C2)c2ccccc21 (stereo partly specified) | solubility [1]: 5.2 µM (≈ 2.19 µg/mL); bioavailability [2]: 14%; CL/F [3]: 60 mL/min/kg; half-life [4]: 1 h; Vdss (Rattus norvegicus): 13 L/kg; half-life [5]: 3.1 h; IC50 (Cytochrome P450 2D6): 14 nM; Papp [6]: 0.03 ×10⁻⁶ cm/s
4 | Active | O=C(c1cc2c(Cl)cccc2[nH]1)N1C[C@@]2(CCN(C3CCNC3)C2)c2ccccc21 (stereo partly specified) | 
5 | Active | NC(=O)c1ccc2cc(C(=O)N3C[C@@]4(CCN(C5CCNC5)C4)c4ccccc43)[nH]c2c1 (stereo partly specified) | 
6 | Active | Cc1ccc(N2CC[C@]3(C2)CN(C(=O)c2cc4cc(F)ccc4[nH]2)c2ccccc23)cn1 | 
7 | Active | COc1ccc2cc(C(=O)N3C[C@@]4(CCN(C5CCNC5)C4)c4ccccc43)[nH]c2c1 (stereo partly specified) | 
8 | Active | O=C(c1cc2cc(F)ccc2[nH]1)N1C[C@@]2(CCN(C3CCCCC3)C2)c2ccccc21 | 
9 | Active | Cc1ccc2[nH]c(C(=O)N3C[C@@]4(CCN(C5CCNC5)C4)c4ccccc43)cc2c1 (stereo partly specified) | 
10 | Active | CCN1CCCC(N2CC[C@@]3(CN(C(=O)c4cc5cc(F)ccc5[nH]4)c4ccccc43)C2)C1 (stereo partly specified) | 
11 | Active | O=C(c1cc2cc(Cl)ccc2[nH]1)N1C[C@@]2(CCN(C3CCCNC3)C2)c2ccccc21 (stereo partly specified) | 
12 | Active | O=C(c1cc2cc(F)ccc2[nH]1)N1C[C@@]2(CCN(CC3CCCNC3)C2)c2ccccc21 (stereo partly specified) | 
13 | Active | O=C(c1cc2cc(Cl)ccc2[nH]1)N1C[C@@]2(CCN(C3CCNC3)C2)c2ccccc21 (stereo partly specified) | 
14 | Active | COc1ccc2[nH]c(C(=O)N3C[C@@]4(CCN(C5CCNC5)C4)c4ccccc43)cc2c1 (stereo partly specified) | 
